Data: the supplement of paper PMC10307832

What was measured:
Test in all cases: relative viability (nuclei count vs DMSO), 5 days (fraction); higher = more cells survive
[1] = system: ChaGo-K-1
Summary of the method: (§1)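 Five library-drug doses in √10 steps were combined with a fixed anchor-drug dose, or a single drug was given alone, by pin tool to lung cancer cell lines in 1536-well plates the day after seeding. Nuclei were stained and counted after 5 days. Relative viability is the nuclei count in treated wells over that in vehicle wells, taken as the median of duplicate plates.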

[2] = system: EMC-BAC-2
Summary of the method: as §1

[3] = system: EPLC-272H
Summary of the method: as §1

[4] = system: HCC-366
Summary of the method: as §1

[5] = system: HCC-44
Summary of the method: as §1

[6] = system: HCC-78
Summary of the method: as §1

[7] = system: HCC-827
Summary of the method: as §1

[8] = system: LCLC-103H
Summary of the method: as §1

[9] = system: LK-2
Summary of the method: as §1

[10] = system: LOU-NH91
Summary of the method: as §1

[11] = system: LU99A
Summary of the method: as §1

[12] = system: LXF-289
Summary of the method: as §1

[13] = system: NCI-H1563
Summary of the method: as §1

[14] = system: NCI-H1666
Summary of the method: as §1

[15] = system: NCI-H1975
Summary of the method: as §1

[16] = system: NCI-H2085
Summary of the method: as §1

[17] = system: NCI-H2126
Summary of the method: as §1

[18] = system: NCI-H23
Summary of the method: as §1

[19] = system: NCI-H2405
Summary of the method: as §1

[20] = system: NCI-H3122
Summary of the method: as §1

[21] = system: RERF-LC-KJ
Summary of the method: as §1

[22] = system: SK-LU-1
Summary of the method: as §1

[23] = system: SW 1573
Summary of the method: as §1

## COc1cc(N2CCC(C(N)=O)CC2)ccc1Nc1nc(N)c(Cl)c(Nc2ccccc2S(=O)(=O)C(C)C)n1 [HG-5-88-01] + CS(=O)(=O)N1CCN(Cc2cc3nc(-c4cccc5[nH]ncc45)nc(N4CCOCC4)c3s2)CC1 [Pictilisib] (partner 1 µM)
[1]; first compound 0.04 µM
  relative viability: 0.794
[1]; first compound 0.1265 µM
  relative viability: 0.785
[1]; first compound 0.4 µM
  relative viability: 0.679
[1]; first compound 1.265 µM
  relative viability: 0.863
[1]; first compound 4 µM
  relative viability: 0.556
[2]; first compound 0.04 µM
  relative viability: 0.531
[2]; first compound 0.1265 µM
  relative viability: 0.509
[2]; first compound 0.4 µM
  relative viability: 0.495
[2]; first compound 1.265 µM
  relative viability: 0.554
[2]; first compound 4 µM
  relative viability: 0.505
[3]; first compound 0.04 µM
  relative viability: 0.302
[3]; first compound 0.1265 µM
  relative viability: 0.262
[3]; first compound 0.4 µM
  relative viability: 0.29
[3]; first compound 1.265 µM
  relative viability: 0.219
[3]; first compound 4 µM
  relative viability: 0.0916
[4]; first compound 0.04 µM
  relative viability: 0.101
[4]; first compound 0.1265 µM
  relative viability: 0.16
[4]; first compound 0.4 µM
  relative viability: 0.0782
[4]; first compound 1.265 µM
  relative viability: 0.157
[4]; first compound 4 µM
  relative viability: 0.212
[5]; first compound 0.04 µM
  relative viability: 0.695
[5]; first compound 0.1265 µM
  relative viability: 0.569
[5]; first compound 0.4 µM
  relative viability: 0.542
[5]; first compound 1.265 µM
  relative viability: 0.519
[5]; first compound 4 µM
  relative viability: 0.375
[6]; first compound 0.04 µM
  relative viability: 0.204
[6]; first compound 0.1265 µM
  relative viability: 0.19
[6]; first compound 0.4 µM
  relative viability: 0.153
[6]; first compound 1.265 µM
  relative viability: 0.167
[6]; first compound 4 µM
  relative viability: 0.157
[7]; first compound 0.04 µM
  relative viability: 1.02
[7]; first compound 0.1265 µM
  relative viability: 0.931
[7]; first compound 0.4 µM
  relative viability: 0.924
[7]; first compound 1.265 µM
  relative viability: 0.552
[7]; first compound 4 µM
  relative viability: 0.56
[8]; first compound 0.04 µM
  relative viability: 0.643
[8]; first compound 0.1265 µM
  relative viability: 0.555
[8]; first compound 0.4 µM
  relative viability: 0.484
[8]; first compound 1.265 µM
  relative viability: 0.608
[8]; first compound 4 µM
  relative viability: 0.426
[9]; first compound 0.04 µM
  relative viability: 0.632
[9]; first compound 0.1265 µM
  relative viability: 0.522
[9]; first compound 0.4 µM
  relative viability: 0.546
[9]; first compound 1.265 µM
  relative viability: 0.386
[9]; first compound 4 µM
  relative viability: 0.614
[10]; first compound 0.04 µM
  relative viability: 0.495
[10]; first compound 0.1265 µM
  relative viability: 0.514
[10]; first compound 0.4 µM
  relative viability: 0.513
[10]; first compound 1.265 µM
  relative viability: 0.482
[10]; first compound 4 µM
  relative viability: 0.401
[11]; first compound 0.04 µM
  relative viability: 0.31
[11]; first compound 0.1265 µM
  relative viability: 0.315
[11]; first compound 0.4 µM
  relative viability: 0.303
[11]; first compound 1.265 µM
  relative viability: 0.318
[11]; first compound 4 µM
  relative viability: 0.215
[12]; first compound 0.04 µM
  relative viability: 0.819
[12]; first compound 0.1265 µM
  relative viability: 0.796
[12]; first compound 0.4 µM
  relative viability: 0.821
[12]; first compound 1.265 µM
  relative viability: 0.81
[12]; first compound 4 µM
  relative viability: 0.736
[13]; first compound 0.04 µM
  relative viability: 0.66
[13]; first compound 0.1265 µM
  relative viability: 0.671
[13]; first compound 0.4 µM
  relative viability: 0.638
[13]; first compound 1.265 µM
  relative viability: 0.651
[13]; first compound 4 µM
  relative viability: 0.634
[14]; first compound 0.04 µM
  relative viability: 0.503
[14]; first compound 0.1265 µM
  relative viability: 0.43
[14]; first compound 0.4 µM
  relative viability: 0.467
[14]; first compound 1.265 µM
  relative viability: 0.476
[14]; first compound 4 µM
  relative viability: 0.34
[15]; first compound 0.04 µM
  relative viability: 0.32
[15]; first compound 0.1265 µM
  relative viability: 0.277
[15]; first compound 0.4 µM
  relative viability: 0.244
[15]; first compound 1.265 µM
  relative viability: 0.191
[15]; first compound 4 µM
  relative viability: 0.17
[16]; first compound 0.04 µM
  relative viability: 0.478
[16]; first compound 0.1265 µM
  relative viability: 0.457
[16]; first compound 0.4 µM
  relative viability: 0.525
[16]; first compound 1.265 µM
  relative viability: 0.414
[16]; first compound 4 µM
  relative viability: 0.442
[17]; first compound 0.04 µM
  relative viability: 0.419
[17]; first compound 0.1265 µM
  relative viability: 0.435
[17]; first compound 0.4 µM
  relative viability: 0.513
[17]; first compound 1.265 µM
  relative viability: 0.501
[17]; first compound 4 µM
  relative viability: 0.38
[18]; first compound 0.04 µM
  relative viability: 0.382
[18]; first compound 0.1265 µM
  relative viability: 0.572
[18]; first compound 0.4 µM
  relative viability: 0.469
[18]; first compound 1.265 µM
  relative viability: 0.533
[18]; first compound 4 µM
  relative viability: 0.35
[19]; first compound 0.04 µM
  relative viability: 0.286
[19]; first compound 0.1265 µM
  relative viability: 0.465
[19]; first compound 0.4 µM
  relative viability: 0.363
[19]; first compound 1.265 µM
  relative viability: 0.329
[19]; first compound 4 µM
  relative viability: 0.451
[20]; first compound 0.04 µM
  relative viability: 0.252
[20]; first compound 0.1265 µM
  relative viability: 0.174
[20]; first compound 0.4 µM
  relative viability: 0.2
[20]; first compound 1.265 µM
  relative viability: 0.172
[20]; first compound 4 µM
  relative viability: 0.173
[21]; first compound 0.04 µM
  relative viability: 0.588
[21]; first compound 0.1265 µM
  relative viability: 0.714
[21]; first compound 0.4 µM
  relative viability: 0.498
[21]; first compound 1.265 µM
  relative viability: 0.481
[21]; first compound 4 µM
  relative viability: 0.412
[22]; first compound 0.04 µM
  relative viability: 0.539
[22]; first compound 0.1265 µM
  relative viability: 0.572
[22]; first compound 0.4 µM
  relative viability: 0.539
[22]; first compound 1.265 µM
  relative viability: 0.594
[22]; first compound 4 µM
  relative viability: 0.6
[23]; first compound 0.04 µM
  relative viability: 0.422
[23]; first compound 0.1265 µM
  relative viability: 0.563
[23]; first compound 0.4 µM
  relative viability: 0.445
[23]; first compound 1.265 µM
  relative viability: 0.392
[23]; first compound 4 µM
  relative viability: 0.489
